Source: patent US5306620A, “Antibodies that bind to a ligand-induced binding site on integrin and induce integrin activation” (The Scripps Research Institute, priority 1990, dated 1994)
Blank lines part the entries; values can stand above or below the compound they belong to. Residues, ends and D or L forms follow the SMILES beside them.

Experiments:
αIIb β3 on A5 cells [1] = target: T1, αIIb β3 on A5 cells (Homo sapiens, UniProt P05106+P08514); test: PAC1-binding assay (FACS) on A5 cells; format: cell-based; conditions: for stimulation of PAC1 binding to A5 cells by platelet agonists: ADP 10 to 50 uM, thrombin 1 to 5 units/ml, epinephrine 4 to 200 uM, phorbol myristate acetate 5 to 500 nm, ionomycin 5 to 200 nM
T1 construct: expressed in transfected cells
Procedure: (§1) Antibody binding to cells was analyzed by flow cytometry, also referred to as fluorescence-activated cell sorting (FACS). Cells for flow cytometric analysis were harvested with 3.5 mM EDTA and an aliquot of 5×10^5 cells was pelleted, resuspended in media or Tyrodes buffer containing a specific first antibody, and incubated for 20 minutes on ice with or without peptide ligands. Cells were pelleted, washed once, and incubated for 20 minutes with the second antibody, FITC-conjugated goat anti-mouse IgG (Tago, Burlingame, Calif.). Cells were then pelleted, resuspended in 0.5 ml media or Tyrodes and analyzed on a FACS IV analyzer (Becton-Dickinson, San Jose, Calif.).
To that end, PAC1 antibody was fluoresceinated with FICT as described by Taub et al., J. Biol. Chem., 264:259-265 (1989) to form FITC-PAC1 and used directly in flow cytometry. Briefly, 5×10^5 cells were harvested and resuspended to 50 ul in Tyrodes buffer [Frelinger et al., J. Biol. Chem., 265:6346-6352 (1990)]containing 10 ug/ml of FITC-PAC1 in the presence or absence of additional agonists. After a 30 minute incubation at 37 degrees, the samples were diluted to 0.5 ml with Tyrodes and analyzed by flow cytometry as described in Example 7.
To evaluate the capacity of a monoclonal antibody to activate (i.e., to increase specific ligand binding affinity of) the integrin GPIIb-IIIa, an assay was developed that measures PACT binding to GPIIb-IIIa bearing cells using the FACS analysis as described in Example 7.
In the PAC1-binding assay for integrin-activating antibody, the activating antibody was admixed with an integrin binding cell at a concentration of about 5 uM antibody. For GPIIb-IIIa, a suspension of cells was prepared as in Example 9, activating antibody was admixed at 5 uM and the admixture was maintained for 20 minutes on ice. Thereafter FITC-PAC1 was added as described in Example 9 and the FACS protocol followed as in Example 9 to measure PAC1 binding.

GPIIb-IIIa on platelets [2] = target: T2, GPIIb-IIIa on platelets (Homo sapiens, UniProt P05106+P08514); test: PAC1-binding assay (FACS) on platelets; format: cell-based
T2 construct: endogenous in cells; host or cells: platelets
Procedure: as §1
In the PAC1-binding assay for integrin-activating antibody, the activating antibody was admixed with an integrin binding cell at a concentration of about 5 uM antibody.

[3] = target: T3, αIIb β3 on fixed platelets (Homo sapiens, UniProt P05106+P08514); test: FITC-PAC1 binding to formaldehyde fixed platelets; format: cell-based; conditions: 0.1% paraformaldehyde; PMA 50 nM, thrombin 1 unit/ml
T3 construct: To fix platelets, blood from a normal donor was centrifuged at 1,000 rpm; endogenous in cells; host or cells: platelets from blood of a normal donor, fixed with 0.1% paraformaldehyde
Procedure: The data described in Examples 10 and 11 established that Fab fragments of the activating antibodies P41 or Ab62 activate A5 cells and platelets to express αIIb β3 dependent receptors for fluid phase Fg and PAC1. To determine if this activation required intracellular signal transduction events, the capacity of these Fabs to induce PACI binding to formaldehyde fixed platelets was measured.
To fix platelets, blood from a normal donor was centrifuged at 1,000 rpm for 20 minutes and the resulting platelet rich plasma incubated with 2 ug/ml PGE1 and 1 mM theophylline for 15 minutes at room temperature followed by a 15 minute room temperature incubation with 0.1% paraformaldehyde. Fixed or normal platelets were then analyzed for FITC-PAC1 binding as described above in Example 9 in the presence of platelet agonists, or activating antibody P41.

αIIb β3 on A5 cells [4] = target: T1, αIIb β3 on A5 cells; test: Soluble 125I-fibrinogen binding to A5 cells; format: cell-based
Procedure: FIG. 4 illustrates the equilibrium binding of soluble fibrinogen (Fg) to Ab-62 stimulated (activated) A5 cells when measured as in Example 10. A5 cells at a concentration of 10^6 per ml were admixed with 6 uM of Sepharose-purified AB-62 and maintained at 22 C. for 30 minutes to activate the integrin. Iodinated Fg was then admixed in varying concentrations from 0.01 to 1 nM. After a 60 minute maintenance period, the bound ligand was separated from free ligand by centrifugation through 0.3 ml of 20% sucrose. The amount of radiolabelled ligand associated with the cell pellet was determined by gamma detection. Saturable binding was measured in three different experiments and plotted versus the input Fg concentration to obtain an averaged profile. A Scatchard replot of the binding data was made and is shown in the insert.
An independent measure of integrin activation was made by detecting the ability of a cell containing the integrin to bind soluble fibrinogen (Fg) that had been labelled with ^125 I. Fg was isolated and labelled with ^125 I by standard methods as described by Marguerie et al., J. Biol. Chem., 255:154-161 (1980) to form ^125 I-Fg. Thereafter, the binding of ^125 I-Fg to transfected cells was assayed as described previously for platelets [Marguerie et al., J. Biol. Chem., 255:154-161 (1980)]. Binding was initiated by the addition of cells to radiolabelled Fg and incubation at 37 degrees for 30 minutes. Bound ligand was separated from free ligand by centrifugation through 0.3 ml of 20% sucrose and the amount of radiolabelled ligand associated with the cell pellet determined by gamma detection.
Background binding in this assay detected about 30,000 molecules of Fg bound per integrin bearing cell, whereas maximum Ab-62 stimulated A5 cells bound about 95,000 molecules of Fg per cell.
Equilibrium binding of soluble Fg to Ab-62 stimulated (activated) A5 cells was carried out to better characterize Fg binding. […] A5 cells (10^6 per ml) were incubated with 6 uM Sepharose-purified Ab-62 for 30 minutes at 22 C. to activate the integrin. Thereafter ^125 I-Fg was admixed in varying concentrations from 0.01 to 1 nM. After 60 minutes, bound Fg was measured as described above after centrifugation of the cells through sucrose.
Saturable binding was measured in three different experiments and plotted versus the input Fg concentration to obtain average data which is shown in FIG. 4. A Scatchard replot of the binding data was also made and is shown in the inset to FIG. 4. The binding of the various concentrations of Fg to activated A5 cells at steady state was analyzed by use of the "Ligand" computer program. […] There was day to day variation in the quantity of αIIb β3 expressed as measured by the binding of the 2G12 antibody (150,000 to 440,000 sites/cell) as well as in the number of Fg receptors (138,000 to 360,000 sites/cell). The ratio of Fg receptors to αIIb β3 expressed per cell on a given day was 0.83±0.05, thus virtually all of the recombinant αIIb β3 was functional with respect to Fg binding.

[5] = target: T4, solubilized αIIb β3 from platelets (Homo sapiens, UniProt P05106+P08514); test: Solution phase assay: 125I-Fg binding to solubilized αIIb β3; format: biochemical
T4 construct: αIIb β3 was solubilized from platelets; endogenous in cells; host or cells: human platelets, octylglucoside lysate
Procedure: To determine if activating antibodies could activate αIIb β3 extracted away f rom the membrane milieu, the activating capacity to stimulate Fg binding in a solution phase was assayed. In this assay, αIIb β3 was solubilized from platelets, incubated in the presence or absence of activating monoclonal antibodies, and then bound to microtiter plates coated with a non-activating monoclonal anti β3 antibody.
The platelet pellet was resuspended and solubilized in ice cold 10 mM Hepes containing 150 mM NaCl, 50 mM octyl-B-D-glucoypyranoside (Calbiochem, La Jolla, Calif.) 1 mm PMSF, 50 ng/ml PGE, 1 mM CaCl2, 1 mM MgCl2, 50 uM leupeptin and 1 mg/ml N-ethylmaleimide (Sigma, St. Louis, Mo.) and centrifuged at 100,000 g for 30 minutes. […] The microtiter wells were incubated at 4 C. overnight, washed twice with a modified Tyrodes-Hepes buffer (2.5 mM Hepes, 150 mM NaCl, 2.5 mM KCl, 1 mM MgCl2, 12 mM NaHCO3, 5.5 mM D-glucose and 1 mg/ml BSA, pH 7.4) containing 50 MM octyl-B-D-glucopyranoside and 0.1 uM activating monoclonal antibody and then twice in Tyrodes-Hepes buffer only to form αIIb β3 -bound microtiter wells. […] Bound radioactivity was counted after 2 washes with Tyrodes-Hepes buffer.

GPIIb-IIIa on platelets [6] = target: T2, GPIIb-IIIa on platelets; test: 125I-anti-LIBS1 binding to platelets in the presence of fibrinogen; conditions: ADP (10 uM) stimulated platelets, 125I-anti-LIBS1 Fab 0.8 uM, 37 C 30 minutes; read-out: concentration of fibrinogen required for a half-maximal increase in anti-LIBS1 binding
Procedure: FIG. 1 illustrates anti-LIBS1 binding to platelets in the presence of ADP-stimulated fibrinogen as described in Example 4. Gel-filtered platelets (1 ×10^8 platelets/ml) were incubated with ^125 I-labeled anti-LIBS1 and varied concentrations of fibrinogen in the presence (ADP-stimulated) or absence (Control) of ADP (10 uM) for 30 minutes at 37 C. Platelet-bound radioactivity was separated from free by centrifuging the platelets through a layer of sucrose. Results are shown as the average of triplicate determinations +/ - one standard deviation.
Platelet rich plasma (PRP) was prepared as in Example 1A and divided into 2 aliquots. In one aliquot, the platelets were stimulated to express functional GPIIb-IIIa (fibrinogen receptors) by admixture of adenosine diphosphate (ADP) to a 10 uM final concentration to produce ADP-stimulatedplatelets. As a negative control, the second aliquot of PRP received no stimulus to produce non-stimulated platelets.
^125 I-labeled LIBSA (anti-LIBS1) Fab fragments, prepared by usual techniques from the ^125 I-labeled antibodies described in Example 2, were then admixed to a 0.8 uM final concentration with several samples of each of the PRP aliquots in the presence of varying concentrations of fibrinogen. […] The amount of ^125 I-anti LIBS1 associated with the pellet was then determined by gamma counting.

T1 sequence (P08514 32-887 limits assumed): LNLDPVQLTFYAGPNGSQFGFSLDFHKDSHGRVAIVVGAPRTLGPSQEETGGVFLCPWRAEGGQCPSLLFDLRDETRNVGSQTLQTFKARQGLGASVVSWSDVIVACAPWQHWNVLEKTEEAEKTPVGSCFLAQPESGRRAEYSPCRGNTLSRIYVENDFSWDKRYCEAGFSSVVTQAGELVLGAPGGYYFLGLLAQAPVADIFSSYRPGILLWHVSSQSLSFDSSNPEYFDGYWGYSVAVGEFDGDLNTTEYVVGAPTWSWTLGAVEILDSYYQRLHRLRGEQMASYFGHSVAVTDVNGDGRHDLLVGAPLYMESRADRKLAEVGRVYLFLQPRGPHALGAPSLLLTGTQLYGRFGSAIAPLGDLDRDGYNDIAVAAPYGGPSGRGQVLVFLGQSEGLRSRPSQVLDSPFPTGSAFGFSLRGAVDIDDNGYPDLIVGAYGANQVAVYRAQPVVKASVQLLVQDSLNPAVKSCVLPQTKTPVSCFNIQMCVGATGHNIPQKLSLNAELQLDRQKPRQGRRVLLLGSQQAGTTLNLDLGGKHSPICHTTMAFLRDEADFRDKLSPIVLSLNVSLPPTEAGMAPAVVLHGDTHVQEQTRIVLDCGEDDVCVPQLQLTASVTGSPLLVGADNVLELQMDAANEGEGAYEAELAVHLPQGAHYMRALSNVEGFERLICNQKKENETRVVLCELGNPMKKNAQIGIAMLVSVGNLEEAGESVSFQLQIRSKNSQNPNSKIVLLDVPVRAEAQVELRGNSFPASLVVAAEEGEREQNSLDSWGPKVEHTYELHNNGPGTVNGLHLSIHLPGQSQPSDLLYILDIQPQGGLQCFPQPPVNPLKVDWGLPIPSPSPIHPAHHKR
T1 sequence (P08514 891-1039 partner limits assumed): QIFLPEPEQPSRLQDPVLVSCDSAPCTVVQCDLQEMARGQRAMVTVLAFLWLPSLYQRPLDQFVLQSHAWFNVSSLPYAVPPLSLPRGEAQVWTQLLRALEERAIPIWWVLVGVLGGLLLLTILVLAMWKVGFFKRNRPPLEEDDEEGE
T1 sequence (P05106 27-788): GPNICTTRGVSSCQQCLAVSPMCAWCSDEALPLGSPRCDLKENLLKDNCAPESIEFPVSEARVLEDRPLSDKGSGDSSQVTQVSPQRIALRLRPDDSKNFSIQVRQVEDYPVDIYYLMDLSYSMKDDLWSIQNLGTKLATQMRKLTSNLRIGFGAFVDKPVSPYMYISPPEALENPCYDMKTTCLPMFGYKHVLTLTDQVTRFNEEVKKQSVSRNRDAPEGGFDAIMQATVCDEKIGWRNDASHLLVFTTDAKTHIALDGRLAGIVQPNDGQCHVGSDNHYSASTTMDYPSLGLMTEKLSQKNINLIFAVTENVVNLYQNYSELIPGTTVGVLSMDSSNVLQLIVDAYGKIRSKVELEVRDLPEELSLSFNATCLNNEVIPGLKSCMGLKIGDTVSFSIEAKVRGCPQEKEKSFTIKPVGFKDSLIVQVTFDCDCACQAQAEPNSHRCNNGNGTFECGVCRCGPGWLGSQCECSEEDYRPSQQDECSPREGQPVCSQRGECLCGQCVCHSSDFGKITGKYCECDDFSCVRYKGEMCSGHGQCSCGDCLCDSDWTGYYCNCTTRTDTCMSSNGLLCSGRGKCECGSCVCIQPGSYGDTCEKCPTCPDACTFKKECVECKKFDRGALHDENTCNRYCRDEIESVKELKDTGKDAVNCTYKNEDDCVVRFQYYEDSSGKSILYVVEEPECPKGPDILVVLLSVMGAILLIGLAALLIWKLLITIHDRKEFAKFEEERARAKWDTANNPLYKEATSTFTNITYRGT
T2 sequence (P08514 32-887 limits assumed): as the sequence (P08514 32-887 limits assumed) above
T2 sequence (P08514 891-1039 partner limits assumed): as the sequence (P08514 891-1039 partner limits assumed) above
T2 sequence (P05106 27-788): as the sequence (P05106 27-788) above
T3 sequence (P08514 32-887 limits assumed): as the sequence (P08514 32-887 limits assumed) above
T3 sequence (P08514 891-1039 partner limits assumed): as the sequence (P08514 891-1039 partner limits assumed) above
T3 sequence (P05106 27-788): as the sequence (P05106 27-788) above
T4 sequence (P08514 32-887 limits assumed): as the sequence (P08514 32-887 limits assumed) above
T4 sequence (P08514 891-1039 partner limits assumed): as the sequence (P08514 891-1039 partner limits assumed) above
T4 sequence (P05106 27-788): as the sequence (P05106 27-788) above

Compound: CCCCCCCCCCCCCC(=O)O[C@@H]1[C@@H](C)[C@@]2(O)[C@@H](C=C(CO)C[C@]3(O)C(=O)C(C)=C[C@@H]23)[C@@H]2C(C)(C)[C@]12OC(C)=O [phorbol myristate acetate]
- PAC1 response after fixation of platelets [3]: completely abrogated
- stimulation of PAC1 binding to A5 cells by platelet agonists (αIIb β3 on A5 cells [1]): failed to stimulate

Compound: C[C@H](CCC(=O)O)C[C@H](C)C[C@H](C)C(=O)/C=C(\O)[C@H](C)C[C@H](C)C/C=C/[C@@H](C)[C@@H](O)[C@@H](C)[C@@H](O)C[C@@H]1CC[C@@](C)([C@H]2CC[C@@](C)([C@@H](C)O)O2)O1 [ionomycin]
- stimulation of PAC1 binding to A5 cells by platelet agonists (αIIb β3 on A5 cells [1]): failed to stimulate

Compound: CNC[C@H](O)c1ccc(O)c(O)c1 [epinephrine]
- stimulation of PAC1 binding to A5 cells by platelet agonists (αIIb β3 on A5 cells [1]): failed to stimulate

The next lines start with the values.

- stimulation of PAC1 binding to A5 cells by platelet agonists (αIIb β3 on A5 cells [1]): failed to stimulate
- PAC1 staining of agonist activated platelets (GPIIb-IIIa on platelets [2]; ADP activated platelets, FACS): stained brightly
Compound: Nc1ncnc2c1ncn2[C@@H]1O[C@H](COP(=O)(O)OP(=O)(O)O)[C@@H](O)[C@H]1O [ADP, adenosine diphosphate]

- PAC1 response after fixation of platelets [3]: completely abrogated
- stimulation of PAC1 binding to A5 cells by platelet agonists (αIIb β3 on A5 cells [1]): failed to stimulate
Compound: thrombin

- inhibition of soluble 125I-Fg binding to activated A5 cells (αIIb β3 on A5 cells [4]): not inhibited
Compound: N=C(N)NCCC[C@H](NC(=O)CN)C(=O)NCC(=O)N[C@@H](CCC(=O)O)C(=O)N[C@@H](CO)C(=O)N1CCC[C@H]1C(=O)O [GRGESP] (H-GRGESP-OH)

- reaction of PAC1 with αIIb β3 in the A5 cell line (αIIb β3 on A5 cells [1]; FITC-PAC1 10 ug/ml, no agonist): did not react
- reaction of PAC1 with resting platelets (GPIIb-IIIa on platelets [2]; FITC-PAC1 10 ug/ml, no agonist): did not react
Compound: PAC1

- non-saturable binding (αIIb β3 on A5 cells [4]; Ab-62 activated A5 cells): 2.2±0.4×10^-3
- receptor concentration (αIIb β3 on A5 cells [4]; Ab-62 activated A5 cells, 10^6 per ml): 2.3 ± 0.3 nM
- Fg binding sites per cell (αIIb β3 on A5 cells [4]; Ab-62 activated A5 cells, Ligand program fit): 138,000 sites/cell
- reversibility of Fg binding (αIIb β3 on A5 cells [4]; Ab-62 stimulated A5 cells): > 75%
- time for Fg binding to reach steady state (αIIb β3 on A5 cells [4]; Ab-62 stimulated A5 cells): ≤ 30 min
- number of Fg receptors (αIIb β3 on A5 cells [4]; activated A5 cells, day to day variation): 138,000 to 360,000 sites/cell
- ratio of Fg receptors to αIIb β3 expressed per cell (αIIb β3 on A5 cells [4]; on a given day): 0.83±0.05
- inhibition of Fg binding to stimulated captured receptor [5]: inhibition
- EC50 (GPIIb-IIIa on platelets [6]): ~700 nM
Compound: fibrinogen
